Publication PMC8365602 (Journal of Medicinal Chemistry, 2021)

Tests used:
5-LOX [1] = target: T1, 5-LOX (Homo sapiens, UniProt P09917); test: Cell-free 5-LOX activity (isolated human recombinant enzyme)
T1 sequence (P09917 1-674): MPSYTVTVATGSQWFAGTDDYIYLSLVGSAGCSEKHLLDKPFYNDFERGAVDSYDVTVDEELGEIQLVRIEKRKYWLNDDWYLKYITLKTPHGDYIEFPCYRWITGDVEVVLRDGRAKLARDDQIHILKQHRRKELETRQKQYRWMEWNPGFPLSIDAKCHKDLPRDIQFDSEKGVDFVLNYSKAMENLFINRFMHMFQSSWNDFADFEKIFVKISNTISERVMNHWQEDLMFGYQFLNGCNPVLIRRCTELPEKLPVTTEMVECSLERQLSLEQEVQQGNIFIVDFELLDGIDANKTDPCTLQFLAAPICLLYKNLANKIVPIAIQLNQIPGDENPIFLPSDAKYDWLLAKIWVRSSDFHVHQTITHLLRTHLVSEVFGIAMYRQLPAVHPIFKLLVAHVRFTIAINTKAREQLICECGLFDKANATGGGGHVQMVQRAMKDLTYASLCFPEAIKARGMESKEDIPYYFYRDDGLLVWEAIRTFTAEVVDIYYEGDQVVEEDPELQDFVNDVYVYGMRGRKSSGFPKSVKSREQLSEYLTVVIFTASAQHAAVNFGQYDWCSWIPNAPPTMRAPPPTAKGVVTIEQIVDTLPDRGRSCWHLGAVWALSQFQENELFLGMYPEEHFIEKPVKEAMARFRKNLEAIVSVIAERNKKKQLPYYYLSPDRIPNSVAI
Method: Human recombinant 5-LOX was expressed in E. coli Bl21 (DE3) cells that were transformed with pT3–5LOX (wt 5-LOX), 5-LOX_3W (triple mutation of Trp102Ala/Trp13Ala/Trp75Ala), or 5-LOX_R (single mutant of the Arg101Asp plasmid) and purified on an ATP-agarose column (Econo-Pac, Bio-Rad, Hercules, CA) by affinity chromatography.[6],[75]
Purified 5-LOX (0.5 μg in PBS pH 7.4 containing 1 mM EDTA and 1 mM ATP) was preincubated with the vehicle (DMSO) or test compounds for 10 min and prewarmed at 37 °C.

monocytes = test: Monocyte membrane integrity (LDH release); assay type: cell-based, human; conditions: higher concentrations (>1 μM)
Method: To measure mitochondrial dehydrogenase activity, 3-(4,5-dimethylthiazol-2-yl)-2,5-diphenyltetrazolium bromide (MTT) (20 μL, 5 mg/mL, Sigma-Aldrich) was added to PBMC. After 4 h in the darkness, the formed formazan product was solubilized (10% SDS in 20 mM HCl) and the absorbance was read at 570 nm using a Multiskan Spectrum microplate reader (Thermo Fisher Scientific).[81]
LDH release was measured in monocytes using a CytoTox 96 nonradioactive cytotoxicity assay (Promega, Madison, WI) according to the manufacturer’s instruction using Triton X-100 (0.8%) as the maximum LDH release control.

[2] = tested on: reconstructed human epidermis (RHE); test: Experimental atopic dermatitis in reconstructed human epidermis (RHE); assay type: cell-based; conditions: RHE
Method: Compound 27a was evaluated in an inflammatory model of RHE by Synelvia S.A.S. (Labège, France) according to the company’s protocol.[88] In brief, primary human keratinocytes were used to generate RHE on polycarbonate filters as described.[88] RHE was allowed to acclimate for 6 days (5% CO2, 37 °C) prior to incubation with 27a (5, 10, 25 μM), dexamethasone (1 μM), or vehicle (0.05% DMSO), and a proinflammatory cytokine cocktail for 4 days at 5% CO2 and 37 °C. The culture medium including compounds and cytokines was changed on days 6, 8, and 10. Each culture condition was repeated three times. Acute cytotoxicity of 27a was excluded at the concentrations studied within 24 h by measuring the mitochondrial dehydrogenase activity (MTT assay).
Morphological changes (i.e., spongiosis and the formation of keratohyalin granules) were evaluated for sections of paraffin-embedded RHEs after hematoxylin-eosin staining.[89] The permeability of the skin barrier was estimated from the transepidermal water loss at the RHE surface.[90] The surface pH was determined with a pH electrode as reported.[89] The permeability of the stratum corneum was addressed by applying Lucifer yellow onto the RHE surface and inspecting the penetration by fluorescence microscopy.[88] TSLP and IL-8 levels were analyzed by ELISA (according to the specifications of Synelvia S.A.S.) in the culture medium on day 2 and day 4 after addition of cytokines, respectively.

5-LOX [3] = target: T1, 5-LOX; test: Tryptophan fluorescence spectroscopy of 5-LOX; assay type: binding; set-up: made in house; host or cells: E. coli Bl21 (DE3); conditions: 5-LOX titrated with compound, 0–10 μM
Method: Fluorescence spectroscopy measurements on human recombinant 5-LOX (Abcam, Cambridge, U.K.) were conducted in PBS pH 7.4 at 25 °C using an Edinburgh Instruments FLS920 Series fluorescence spectrophotometer (Livingston, U.K.). […] The concentration range of 5-LOX used through the experiments was 0.3–0.6 μM. 5-LOX was titrated with a stock solution of the test compounds in dimethylformamide to yield an experimental compound concentration in the range of 0–10 μM. The final dimethylformamide concentration was kept under 5%. After each addition, the sample was incubated for 10 min before measurement. The fluorescence emission intensity values were corrected for dilution and background noise. All conditions were measured independently and in duplicate.
The fluorescence spectral shifts were analyzed by monitoring the alterations in the spectral center of mass by estimating the intensity-averaged emission wavelength (⟨λ⟩), as calculated from the following equation, where Fi is the fluorescence emission intensity at wavenumber νi, and the summation was performed over the range of measured F values [drawing 1] 1

[4] = tested on: mice sensitized to ovalbumin; test: Experimental model of murine asthma (ovalbumin sensitization); assay type: in vivo; conditions: 10 mg/kg p.o.
Method: Male CD-1 mice (33–39 g, 6–8 weeks, Charles River Laboratories; Calco, Italy) and female BALB/c mice (20 g, 8 weeks, Charles River Laboratories) were fed with standard rodent chow and water and acclimated for 4 days at a 12 h light and 12 h dark schedule in a constant air-conditioned environment (21 ± 2 °C). Mice were randomly assigned to groups, and experiments were carried out during the light phase.
BALB/c mice received 27a (p.o.) or vehicle (0.5% carboxymethylcellulose in 10% Tween 20; 0.5 mL) on days 0 and 7, 1 h (p.o) before being sensitized to ovalbumin (100 μg adsorbed to 3.3 mg of aluminum hydroxide gel, s.c., Sigma-Aldrich). Mice were sacrificed on days 1, 3, 8, 10, or 21 to collect lung and plasma. Bronchi were cut in rings of 1 to 2 mm length, placed in organ baths, and fixed to an isometric force transducer 7006 connected to a Powerlab 800 (AD Instruments, Ugo Basile, Comerio, Italy). After stretching the rings to a resting tension of 0.5g and equilibration for at least 30 min, the rings were challenged with carbachol (1 μM) until a reproducible response was observed. To assess bronchial reactivity, the cumulative response to carbachol (0.001 to 3.16 μM) was measured. Bronchial relaxation was determined from the cumulative response of precontracted bronchial tissues to salbutamol. Compound 27a, LTB4, and LTB4 isomers were analyzed in plasma and lung homogenates by UPLC-MS/MS. Lung tissue (100 mg/mL) was homogenized in PBS pH 7.4 at 4 °C for 1–2 min using an Omni tissue homogenizer (Omni, Kennesaw, GA).

`C/C(=C\CC/C(C)=C/CC[C@]1(C)CCc2c(C)c(O)c(C)c(C)c2O1)CCC=C(CO)CO` [Compound 27a, α-amplexichromanol] was tested, and the “Effect of Triton X-100 on 5-LOX inhibition” value (5-LOX [1]; Triton X-100 (0.01%)) was “did not substantially impair 5-LOX inhibition”, the “Dependence of 5-LOX inhibition on substrate (arachidonic acid) concentration” value (5-LOX [1]; human recombinant 5-LOX) was “independent of the substrate concentration” and the “Reversibility of 5-LOX inhibition” value (5-LOX [1]; preincubation 15 min, 10-fold dilution) was “reversible”. The IC50 (5-LOX [1]; read-out: 5-LOX enzyme IC50, isolated human 5-LOX, cell-free, mean ± SEM) was 110 ± 30 nM, the remaining activity at 1 µM (5-LOX [1]; read-out: 5-LOX enzyme residual activity at 1 μM) was 0.1% and the “LDH release from monocytes at higher concentrations” value (monocytes) was “induced a rapid release of lactate dehydrogenase”. The TSLP expression ([2]; cytokine cocktail 2 days) was “did not influence TSLP expression”, the “Epidermal disorganization induced by cytokine treatment” value ([2]; cytokine cocktail 4 days) was “attenuated the epidermal disorganization” and the IL-8 levels ([2]; cytokine cocktail 4 days) was “reduced IL-8 levels”. The “Skin barrier functions (TEWL, Lucifer yellow)” value ([2]; cytokine cocktail 4 days) was “substantially improved skin barrier functions”, the “pH at the RHE surface” value ([2]; cytokine cocktail 4 days) was “decreased even below the basal level” and the “Shift of spectral center of mass of intrinsic Trp fluorescence of 5-LOX” value (5-LOX [3]) was “less pronounced”. For the same compound, the “Lung levels of LTB4 and its isomers” value ([4]; day 3) was “lowered lung levels of LTB4 and its isomers”, the “Adrenergic bronchial relaxation induced by salbutamol” value ([4]; day 21) was “fully restored the adrenergic bronchial relaxation induced by salbutamol” and the “Ovalbumin-induced bronchial hyperreactivity to carbachol” value ([4]; day 21) was “blocked ovalbumin-induced bronchial hyperreactivity to carbachol”.
